A short description of this assay: Tail suspension test. The format is in vivo, mice. From the text: This Example describes antidepressant activity of compounds of embodiments of the present invention. Antidepressant-like effects of CCG 203769: The tail suspension test in mice is a model of learned helplessness and is used as an assay for antidepressant medications. In this test antidepressant drugs (such as SSRIs) decrease the time the animals spend immobile by increasing escape-like behaviors.

For the molecule `CCCCn1c(=O)sn(CC)c1=O` [CCG-203769, 2-ethyl-4-butyl-1,2,4-thiadiazolidine-3,5-dione], the “effect on immobility in RGS4 knockout mice” value (10 mg/kg) was “lost”. Also, where the note is “IP, significant effect at 10 mg/kg”, the immobility time result is “decreases their immobility time in a dose-dependent manner”.

The record behind these values is US8865750B2, “Small molecule inhibitors of RGS proteins” (The Regents of The University of Michigan, priority 2011, dated 2014).
